One test addresses Beta-galactosidase (Escherichia coli, UniProt Q8VNN2). Nature of the test: Dose response counterscreen for EBI2 assay utilizing the enzyme, b-galactosidase. Format: functional.
Test [1] can be described thus: Luminescence Cell-Based Dose Retest to Confirm Inhibitors of Cancer Stem Cells. [Related pubchem assays (depositor defined):AID2717, AID2721]. The note with it: Homo sapiens. It counts as functional.
In a further test the target is T1, Cysteine protease ATG4B (Homo sapiens, UniProt Q9Y4P1).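 Further: Fluorescence-based dose-response confirmation assay measuring inhibition of ATG4B activity.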
T1 sequence (Q9Y4P1 whole entry): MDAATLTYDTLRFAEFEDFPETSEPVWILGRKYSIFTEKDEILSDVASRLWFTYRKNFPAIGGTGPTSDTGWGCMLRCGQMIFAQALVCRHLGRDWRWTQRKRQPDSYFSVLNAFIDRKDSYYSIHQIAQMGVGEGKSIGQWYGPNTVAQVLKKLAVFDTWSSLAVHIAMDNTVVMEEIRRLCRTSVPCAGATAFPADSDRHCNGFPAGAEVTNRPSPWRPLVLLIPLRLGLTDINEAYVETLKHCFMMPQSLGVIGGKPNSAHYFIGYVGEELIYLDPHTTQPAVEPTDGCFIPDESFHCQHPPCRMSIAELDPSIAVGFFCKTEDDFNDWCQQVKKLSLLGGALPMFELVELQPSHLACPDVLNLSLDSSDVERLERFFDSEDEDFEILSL
It counts as functional.

The next test addresses Phospholipase A2 (Homo sapiens, UniProt P04054). It counts as functional.
The subject of a further test is INS1. Nature of the test: beta cell apoptosis inhibitors, cytokine rescue, dose response, luminescence, retest (AID 449756).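 Further: cell death triggered by IL-1 beta plus TNF-alpha plus IFN-gamma mixture; protective hits raise ATP signal compared with cytokine alone wells.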 As to conditions: Rattus norvegicus. It counts as functional, cell-based.
The target of the next test is Paired box protein Pax-8 (Homo sapiens, UniProt Q06710). Nature of the test: inhibitors of PAX8-driven TPO luciferase reporter, dose response, RMG-I cells, cherry-pick (AID 687027).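 Further: luciferase reporter driven by Pax8 target thyroperoxidase promoter measured by SteadyGlo luminescence.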 Format: functional, cell-based.
Test [2] can be described thus: microbe, parasite or virus in culture. It counts as functional. As to conditions: Mycobacterium tuberculosis.
The nature of test [3]: inhibitors of intracellular T. cruzi replication, confirmation, NIH3T3 host cells, beta-gal luminescence (AID 2044).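 Further: intracellular parasites grown in NIH/3T3 mouse fibroblasts as host cells; luminescent beta-galactosidase reporter signal from transgenic T. cruzi replicating inside host cells; inhibitors lower the luminescence signal.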 It counts as functional, cell-based.
Test [4] in a line: cytotoxicity toward NIH3T3 fibroblasts, dose response, counter-screen, cell-based, ATP luminescence, mouse fibroblasts (AID 2010).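 Further: cells exposed to compound for about 90 hours before reading.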 It counts as functional.
Test [5] in a line: HeLa cell cytotoxicity, dose response, cytotoxicity control for MgcRacGAP inhibitor project (AID 624300). It counts as functional.
For test [6], the target named is T2, Rac GTPase-activating protein 1 (Homo sapiens, UniProt Q9H0H5).
T2 sequence (Q9H0H5 whole entry): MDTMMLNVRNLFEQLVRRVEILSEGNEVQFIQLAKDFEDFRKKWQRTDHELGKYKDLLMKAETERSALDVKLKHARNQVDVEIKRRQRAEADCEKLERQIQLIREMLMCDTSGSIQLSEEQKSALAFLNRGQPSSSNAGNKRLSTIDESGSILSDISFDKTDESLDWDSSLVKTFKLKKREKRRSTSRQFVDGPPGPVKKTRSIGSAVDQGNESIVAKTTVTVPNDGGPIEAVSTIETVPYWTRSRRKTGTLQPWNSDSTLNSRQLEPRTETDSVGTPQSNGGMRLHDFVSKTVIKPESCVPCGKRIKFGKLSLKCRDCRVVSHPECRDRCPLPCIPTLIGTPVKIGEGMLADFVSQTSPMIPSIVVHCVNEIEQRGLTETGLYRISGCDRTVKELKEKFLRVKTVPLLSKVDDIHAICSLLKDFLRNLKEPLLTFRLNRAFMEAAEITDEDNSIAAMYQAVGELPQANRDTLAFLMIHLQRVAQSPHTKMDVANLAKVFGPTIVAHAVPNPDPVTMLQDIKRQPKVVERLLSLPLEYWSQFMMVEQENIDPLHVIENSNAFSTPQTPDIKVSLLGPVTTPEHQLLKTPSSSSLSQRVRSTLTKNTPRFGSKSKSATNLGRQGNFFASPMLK
Nature of the test: MgcRacGAP GTPase-activating activity inhibitors, confirmation, biochemical, ADP Hunter fluorescence, primary and confirmatory (AID 624330). Format: functional.

Test [7] can be described thus: inhibitors of HIV Env-driven cell fusion, dose response, cherry-pick (AID 652057). It counts as functional, cell-based.
Test [8] can be described thus: ZM109 Env clade C HIV-1 fusion inhibitors, dose response, HeLa effector, CEM target cells, luciferase, cherry-pick (AID 652058). It counts as functional, cell-based.
A short description of test [9]: inhibitors of clade B AD8 Env fusion, dose response, cell-based, cherry-pick (AID 652062).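 Further: luciferase signal from cell-cell fusion driven by HIV-1 clade B AD8 Env; potency is for inhibitors of fusion seen as a drop in luminescence.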 It counts as functional.
A further test addresses Nonstructural protein 1 (Influenza A virus, UniProt Q194T2). Format: functional, Influenza A virus (A/California/07/2009(H1N1)).
The target of test [10] is T3, DNA repair protein RAD52 homolog (Homo sapiens, UniProt P43351).
T3 sequence (P43351 whole entry): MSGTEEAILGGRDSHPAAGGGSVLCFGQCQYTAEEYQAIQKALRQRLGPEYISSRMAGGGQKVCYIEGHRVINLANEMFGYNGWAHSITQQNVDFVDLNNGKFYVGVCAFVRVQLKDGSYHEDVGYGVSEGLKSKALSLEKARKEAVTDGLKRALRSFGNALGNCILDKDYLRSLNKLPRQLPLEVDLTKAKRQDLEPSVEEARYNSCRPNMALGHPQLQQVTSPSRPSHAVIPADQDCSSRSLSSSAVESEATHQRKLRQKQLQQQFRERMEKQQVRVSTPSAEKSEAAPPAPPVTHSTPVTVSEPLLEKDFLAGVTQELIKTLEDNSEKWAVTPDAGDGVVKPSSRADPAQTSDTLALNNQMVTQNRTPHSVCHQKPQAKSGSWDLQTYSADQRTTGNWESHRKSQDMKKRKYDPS
It counts as functional, biochemical.

This note sets out measurements from ChEMBL document CHEMBL1201862, “PubChem BioAssay data set” (2004).

Structures are written as SMILES. Active and inactive are the calls of the source.

Chain of Phospholipase A2 (P04054 whole entry): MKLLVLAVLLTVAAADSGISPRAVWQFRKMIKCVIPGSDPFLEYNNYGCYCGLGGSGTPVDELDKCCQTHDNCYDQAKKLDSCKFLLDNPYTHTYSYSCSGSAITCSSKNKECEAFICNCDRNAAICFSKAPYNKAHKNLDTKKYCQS
Chain of Beta-galactosidase (Q8VNN2 whole entry): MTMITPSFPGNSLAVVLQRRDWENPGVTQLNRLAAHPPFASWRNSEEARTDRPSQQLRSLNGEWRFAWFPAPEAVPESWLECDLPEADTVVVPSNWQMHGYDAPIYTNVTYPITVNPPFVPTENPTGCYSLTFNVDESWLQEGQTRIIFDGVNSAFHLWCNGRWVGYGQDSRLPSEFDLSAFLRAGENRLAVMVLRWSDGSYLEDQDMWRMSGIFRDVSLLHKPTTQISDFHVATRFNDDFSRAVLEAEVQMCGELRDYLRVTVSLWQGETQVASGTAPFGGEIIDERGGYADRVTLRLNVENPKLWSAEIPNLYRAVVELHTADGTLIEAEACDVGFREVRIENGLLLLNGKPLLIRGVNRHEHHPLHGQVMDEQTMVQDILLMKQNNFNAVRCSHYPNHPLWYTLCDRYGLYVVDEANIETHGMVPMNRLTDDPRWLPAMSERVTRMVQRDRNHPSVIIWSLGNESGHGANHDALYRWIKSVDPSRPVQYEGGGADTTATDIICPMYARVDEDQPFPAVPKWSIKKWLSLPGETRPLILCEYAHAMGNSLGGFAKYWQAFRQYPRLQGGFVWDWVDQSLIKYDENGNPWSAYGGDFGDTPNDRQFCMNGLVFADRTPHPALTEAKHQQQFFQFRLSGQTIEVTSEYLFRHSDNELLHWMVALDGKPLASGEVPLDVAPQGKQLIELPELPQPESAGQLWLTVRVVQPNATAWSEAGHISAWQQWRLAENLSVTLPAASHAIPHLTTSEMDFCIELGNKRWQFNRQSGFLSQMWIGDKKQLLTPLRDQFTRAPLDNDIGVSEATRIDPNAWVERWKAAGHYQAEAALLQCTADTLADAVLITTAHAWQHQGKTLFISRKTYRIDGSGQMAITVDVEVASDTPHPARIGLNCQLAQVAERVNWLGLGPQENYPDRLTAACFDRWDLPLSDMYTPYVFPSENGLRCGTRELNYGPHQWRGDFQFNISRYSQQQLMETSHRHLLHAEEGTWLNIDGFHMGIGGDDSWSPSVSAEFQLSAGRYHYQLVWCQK
Chain of Paired box protein Pax-8 (Q06710 whole entry): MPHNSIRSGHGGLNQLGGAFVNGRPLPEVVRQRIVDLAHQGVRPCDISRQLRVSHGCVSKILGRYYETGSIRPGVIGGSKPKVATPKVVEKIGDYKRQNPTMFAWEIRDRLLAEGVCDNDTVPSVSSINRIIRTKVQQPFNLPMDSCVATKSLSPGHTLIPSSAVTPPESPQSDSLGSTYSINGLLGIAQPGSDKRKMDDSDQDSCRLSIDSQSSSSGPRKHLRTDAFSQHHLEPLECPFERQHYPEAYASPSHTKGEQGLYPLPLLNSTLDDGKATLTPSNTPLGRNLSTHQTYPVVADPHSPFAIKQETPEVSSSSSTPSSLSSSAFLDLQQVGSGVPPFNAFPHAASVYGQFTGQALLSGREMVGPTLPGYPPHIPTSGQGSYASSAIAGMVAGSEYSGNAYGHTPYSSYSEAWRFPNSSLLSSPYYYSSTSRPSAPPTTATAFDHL
Chain of Nonstructural protein 1 (Q194T2 whole entry): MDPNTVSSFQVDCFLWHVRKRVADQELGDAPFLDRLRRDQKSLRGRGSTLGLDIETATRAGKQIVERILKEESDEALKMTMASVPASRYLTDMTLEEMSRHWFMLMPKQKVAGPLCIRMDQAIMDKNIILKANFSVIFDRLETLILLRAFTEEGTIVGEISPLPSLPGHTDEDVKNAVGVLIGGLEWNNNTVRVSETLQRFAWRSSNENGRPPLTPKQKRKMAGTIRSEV

`Cc1ccc(Oc2ncc(-c3ccc(Cl)cc3)cn2)cc1`: the IC50 on Beta-galactosidase is > 80 µM (inactive).
In the case of `CCC1=NN(C(=O)c2cccc(Br)c2)C(O)(c2ccc(Br)cc2)C1` (centres undefined), the AC50 in test [1] is 0.634 µM (active); with INS1 it was 4.84 µM (active). The concentration for half-maximal inhibition (IC50) at Cysteine protease ATG4B is 12.1 µM (active); on Phospholipase A2, 8.71 µM (active).
Take `N#C/C(=C\c1ccccc1)C(=O)Nc1cc(S(=O)(=O)N2CCOCC2)ccc1N1CCCC1`: at Beta-galactosidase, the IC50 was > 80 µM (inactive).
Consider `CCOC(=O)/C=C/C(=O)Nc1cc(S(=O)(=O)Nc2ccc(OC)cc2)ccc1N1CCOCC1`, for which the IC50 on Beta-galactosidase is > 80 µM (inactive). Besides, the AC50 on Paired box protein Pax-8 is 5.42 µM (active).
`O=C(/C=C/c1ccc(Cl)cc1)N1CCN(c2ccc(Cl)cc2[N+](=O)[O-])CC1`: the CC50 in [2] was > 40 µM (active). Besides, the IC50 on Beta-galactosidase is > 80 µM (inactive).
Consider `NC(=O)CSc1nc2cc([N+](=O)[O-])ccc2[nH]1`, for which the IC50 on Cysteine protease ATG4B was 12.4 µM (active); on Phospholipase A2, 9.62 µM (active).
Consider `CCOc1cc(CNc2ccc(N3CCCCC3)cc2)cc(Br)c1OCC(=O)NC(C)(C)C`, for which the results for the EC50 in test [3] and in test [4] were 1.46 µM (active) and > 60 µM (inconclusive), respectively. For the same compound, in test [5], the CC50 was 100 µM (active). Moreover, the IC50 in test [6] was 20.8 µM (active).
Consider `CN(C)Cc1ccc(F)cc1Sc1cc(Cl)ccc1Cl`, for which the values for the IC50 on Cysteine protease ATG4B and at Phospholipase A2 were 16.9 µM (active) and 16.4 µM (active), respectively.
As for `Cc1cc(C)c(S(=O)(=O)N2CCN(C(=O)c3ccc(-n4nc(C)c(Cl)c4C)cc3)CC2)c(C)c1`, at Beta-galactosidase, the IC50 was > 80 µM (inactive).
On to `CC(=O)N1CCOc2ccc(S(=O)(=O)N3CCC(C(=O)NCc4ccc(Cl)cc4)CC3)cc21`, for which, at Beta-galactosidase, the IC50 was > 80 µM (inactive).
As for `COc1ccccc1CNC(=O)C[C@H]1C[C@@H]2c3cc(NS(=O)(=O)c4ccc(F)cc4)ccc3O[C@@H]2[C@H](CO)O1`, the AC50 in test [7], in test [8] and in test [9] was < 0.26 µM (active) throughout.
`C[C@@H]1CN([C@@H](C)CO)S(=O)(=O)c2ccc(C3=CCCCC3)cc2O[C@@H]1CN(C)S(=O)(=O)c1ccc(F)cc1`: the results for the AC50 in test [7], in test [8] and in test [9] were 3.34 µM (active), 1.35 µM (active) and 3.53 µM (active), respectively.
Consider `C[C@H]1CN([C@@H](C)CO)S(=O)(=O)c2ccc(-c3cccc(C#N)c3)cc2O[C@H]1CN(C)Cc1cccc(F)c1`, for which the AC50 is 45.7 µM (active) in test [7] and 43.1 µM (active) in [8].
`Cc1ccc(C(=O)O)cc1/N=C/c1cc(Br)cc(Br)c1O`: the 50% inhibitory concentration (IC50) at Cysteine protease ATG4B is 9.89 µM (active); at Phospholipase A2 it was 18 µM (active).
Take `Cc1ccc(NCCN(C)C)c2c(=O)c3cc(O)ccc3sc12`: the values for the IC50 (at Nonstructural protein 1; in [6]) were 21.7 µM (active) and 24 µM (active), respectively. Further, in test [5], the CC50 is 27.7 µM (active). The half-maximal activity concentration (AC50) in [10] was 0.32 µM (active).
